Measured values: patent US7666635B2, “Process for the preparation of amides” (priority 1997, dated 2010)
Read-outs that look alike come from different tables or passages of the source.

Legend:
[1] = tested on: purified nitrile hydratase from NA40; assay: Substrate specificity of the purified nitrile hydratase; format: biochemical, Amycolatopsis NA40
Procedure: The substrate specificity was determined analogously to Example 2 (1).
1.7 Units of enzyme were added to the reaction mixture (2.0 ml). The reaction mixture contained the respective substrate in 45 mM phosphate buffer (pH 7.0).

[2] = tested on: Rhodococcus rhodochrous J1; assay: Substrate specificity of the Rhodococcus strains; format: cell-based
Procedure: (§1) Rhodococcus rhodochrous J1 was cultured for 72 h in the medium described in EP-A 0 307 926. The microorganisms Rhodoccus GF674, GF578, GF270 and GF376 were cultured in the following media at pH 7.0 for up to 96 h:
(§2) The substrate specificity is summarized as relative activity in Table 15.

[3] = tested on: NA40 nitrile hydratase (resting NA40 cells); assay: Substrate specificity of resting NA40 cells; format: cell-based, Amycolatopsis NA40
Procedure: (3) For determination of the activity of NA40 with respect to a number of substrates, cells having a dry weight of 0.0388 mg were incubated in the buffer described above. The reaction was started by addition of the appropriate substrate and incubated at 20° C. with shaking for 10 min. The reaction was stopped by addition of 0.2 ml of 2 N HCl and the reaction mixture was briefly centrifuged. The supernatant was analysed by means of HPLC or gas chromatography.

[4] = tested on: Rhodococcus GF578; assay: Substrate specificity of the Rhodococcus strains; format: cell-based
Procedure: as §1
(§3) Rhodoccus GF674 in a medium comprising yeast extract 1.0 g/l, fructose 5.0 g/l, malt extract 10.0 g/l, acetamide 5.0 g/l, KH2PO4 2.0 g/l, MgSO47H2O 0.5 g/l and CoCl2.6H2O 10.0 mg. Rhodoccus GF578 in a medium containing yeast extract 1.0 g/l, fructose 15.0 g/l, malt extract 10.0 g/l, acetamide 25.0 g/l, KH2PO4 2.0 g/l, MgSO47H2O 0.5 g/l and CoCl2.6H2O 5.0 mg. […] Rhodoccus GF3 76 in a medium containing yeast extract 1.0 g/l, sodium citrate 10.0 g/l, malt extract 15.0 g/l, butyramide 7.5 g/l, KH2PO4 2.0 g/l, MgSO4.7H2O 0.5 g/l and CoCl2.6H2O 15.0 mg.
as §2

[5] = tested on: Rhodococcus GF270; assay: Substrate specificity of the Rhodococcus strains; format: cell-based
Procedure: as §1, §3, §2

[6] = tested on: Rhodococcus GF674; assay: Substrate specificity of the Rhodococcus strains; format: cell-based
Procedure: as §1, §3, §2

[7] = tested on: Rhodococcus GF376; assay: Substrate specificity of the Rhodococcus strains; format: cell-based
Procedure: as §1, §3, §2

[8] = tested on: purified nitrile hydratase from NA40; assay: Substrate specificity of the purified nitrile hydratase; format: biochemical, Amycolatopsis NA40; settings: pH 7
[9] = tested on: nitrile hydratase of NA40; assay: Determination of the KM value (Lineweaver-Burk diagram); format: biochemical, Amycolatopsis NA40; settings: substance as substrate; 20 ° C., 45 mM phosphate buffer, pH 7.0
Procedure: The KM value was determined to be 41.7 mM for 3-cyanopyridine and to be 3.7 mM for acrylonitrile by means of the Lineweaver-Burk diagram. […] This is one of the main advantages of NA40.

[10] = tested on: Actinomadura spadix 45A32; assay: Conversion rates of aliphatic nitriles using the isolated bacteria (enrichment medium); format: cell-based
Procedure: (§4) a) Various soil samples were inoculated with various nitriles or amides as a C and N source in the enrichment medium according to Table 1 and incubated at 37° C. or 45° C. for 7 10 days. The cultures were then transferred to the same medium and again cultured at 37° C. for 7 10 days. The whole process was repeated 3 times. The cultures were then diluted and plated out in order to obtain individual colonies. The plates were incubated at 37° C. for 5 days. The different colonies were then tested for the desired activity.
(§5) […] as a C and N source for Amycolatopsis NE31 (DSMZ 11616) Actinomadura spadix E3733 and Actinomadura spadix E3736, azelanitrile served as a C and N source for Amycolatopsis NA40 (DSMZ 11617) and Actinomadura spadix 45A32, n-octanenitrile served as a C and N source for Actinomadura spadix 4501 and cyanoacetic acid served as a C and N source for Actinomadura spadix C15.
(§6) (1) For determination of the nitrile hydratase activity, a reaction mixture (2 ml) containing 3-cyanopyridine (1.0 M, 1.0 ml), potassium phosphate buffer (pH 7.0, 0.1 M, 0.5 ml) and 0.5 ml of cell suspension were incubated at 20° C. for 30 min with stirring. The reaction was stopped by addition of 0.2 ml of 3 N HCl. After centrifuging briefly, the nicotinamide formed was determined by means of HPLC (Shimadzu SPD 6A system using a C18 column (Develosil ODS-HG-5. […]); eluent: 10 mM KH2PO4/H3PO4 (pH 2.8)/acetonitrile 9:1 (v/v); flow rate: 1 ml/min; the absorption was measured at 230 nm). The specific activity was expressed as µmol of nicotinamide formed/ml/min/OD610 nm.
(§7) The reaction rates of aliphatic nitriles in the enrichment medium (Table 1) with isolated bacteria is summarized in Table 5, the effects of inducers and cofactors in the basal medium (Table 2) is summarized in Table 4 and the activity comparison of Amycolatopsis to Rhodoccus in the basal medium (Table 2) is summarized in Table 6.

[11] = tested on: Amycolatopsis NA40 (DSMZ 11617); assay: as above; format: cell-based
Procedure: as §4, §5, §6, §7

[12] = tested on: Rhodoccus rhodochrous J1; assay: Tolerance of 3-cyanopyridine on the activity of resting cells; format: cell-based, Rhodococcus rhodochrous J1; settings: substrate concentration of 2% (w/v), resting cells 15 min at 20° C.
Procedure: (§8) In order to test the tolerance of 3-cyanopyridine, resting cells were incubated for 15 min at 20° C. at concentrations of 3-cyanopyridine between 1 and 10% (w/v) and the cells were then removed by centrifugation. After washing the cells with 0.85% NaCl, the remaining activity was measured.
(§9) The tolerance of 3-cyanopyridine as a substrate was tested at various substrate concentrations.

[13] = molecular target: T1, Purified enzyme from J1 (nitrile hydratase) (Rhodococcus rhodochrous, UniProt P21219+P21220); assay: Activity for 3-cyanopyridine, purified enzyme; format: biochemical
T1 construct: host or cells: Rhodococcus rhodochrous J1 (native producer)
T1 sequence (P21219 2-203 limits assumed): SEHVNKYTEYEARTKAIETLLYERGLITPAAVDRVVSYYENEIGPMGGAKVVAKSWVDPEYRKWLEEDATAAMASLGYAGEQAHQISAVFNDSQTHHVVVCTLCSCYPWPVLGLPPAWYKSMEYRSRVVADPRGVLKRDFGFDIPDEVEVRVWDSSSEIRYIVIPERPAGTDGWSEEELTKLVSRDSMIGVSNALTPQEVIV
T1 sequence (P21220 whole entry): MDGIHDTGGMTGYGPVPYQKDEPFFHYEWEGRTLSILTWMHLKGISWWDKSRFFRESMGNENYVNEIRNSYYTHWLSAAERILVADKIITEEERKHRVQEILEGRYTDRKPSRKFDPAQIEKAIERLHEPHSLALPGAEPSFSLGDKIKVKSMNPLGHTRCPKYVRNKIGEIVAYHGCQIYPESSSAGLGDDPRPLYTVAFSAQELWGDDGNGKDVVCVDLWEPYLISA

[14] = tested on: Rhodoccus GF270; assay: Tolerance of 3-cyanopyridine on the activity of resting cells; format: cell-based, Rhodococcus GF270; settings: substrate concentration of 4% (w/v), resting cells 15 min at 20° C.
Procedure: as §8, §9

[15] = tested on: Rhodoccus GF376; assay: as above; format: cell-based, Rhodococcus GF376; settings: substrate concentration of 10% (w/v), resting cells 15 min at 20° C.
Procedure: as §8, §9

[16] = tested on: Purified enzyme from NA40 (nitrile hydratase); assay: Activity for 3-cyanopyridine, purified enzyme; format: biochemical, Amycolatopsis NA40
Procedure: […] The reaction was stopped by addition of 0.2 ml of 3 N HCl. After centrifuging briefly, the nicotinamide formed was determined by means of HPLC (Shimadzu SPD 6A system using a C18 column (Develosil ODS-HG-5. […]); eluent: 10 mM KH2PO4/H3PO4 (pH 2.8)/acetonitrile 9:1 (v/v); flow rate: 1 ml/min; the absorption was measured at 230 nm). The specific activity was expressed as µmol of nicotinamide formed/ml/min/OD610 nm.
as §7

[17] = tested on: Rhodoccus GF578; assay: Tolerance of 3-cyanopyridine on the activity of resting cells; format: cell-based, Rhodococcus GF578; settings: up to a substrate concentration of 8%, resting cells 15 min at 20° C.
Procedure: as §8, §9

[18] = tested on: Rhodococcus rhodochrous J1; assay: Activity for 3-cyanopyridine, microorganism (comparison in basal medium); format: cell-based
Procedure: as §6, §7

[19] = tested on: Amycolatopsis NA40 (DSMZ 11617); assay: as above; format: cell-based
Procedure: as §6, §7

[20] = tested on: Rhodoccus GF674; assay: Tolerance of 3-cyanopyridine on the activity of resting cells; format: cell-based, Rhodococcus GF674; settings: substrate concentration of 4% (w/v), resting cells 15 min at 20° C.
Procedure: as §8, §9

[21] = tested on: Amycolatopsis NA40; assay: Effect of methanol on resting cells of NA40; format: cell-based; settings: for Relative activity: 10 min
Procedure: The reaction was carried out for 10 min in the presence of 0 20% (v/v) methanol according to Table 13.

[22] = tested on: Actinomadura spadix 45O1; assay: Conversion rates of aliphatic nitriles using the isolated bacteria (enrichment medium); format: cell-based
Procedure: as §4, §5, §6, §7

[23] = tested on: Actinomadura spadix C15; assay: as above; format: cell-based
Procedure: as §4, §5, §6, §7

[24] = tested on: Amycolatopsis NE31 (DSMZ 11616); assay: as above; format: cell-based
Procedure: as §4, §5, §6, §7

[25] = tested on: Actinomadura spadix E3733; assay: as above; format: cell-based
Procedure: as §4, §5, §6, §7

[26] = tested on: Actinomadura spadix E3736; assay: as above; format: cell-based
Procedure: as §4, §5, §6, §7

[27] = purified enzyme, 3-cyanopyridine = 100
[28] = Rhodococcus rhodochrous J1, 3-cyanopyridine = 100
[29] = resting NA40 cells, 20° C., 10 min, 3-cyanopyridine = 100, substrate concentration per Table 8
[30] = Rhodococcus GF578, 3-cyanopyridine = 100
[31] = Rhodococcus GF270, 3-cyanopyridine = 100
[32] = Rhodococcus GF674, 3-cyanopyridine = 100
[33] = Rhodococcus GF376, 3-cyanopyridine = 100

N#Cc1ccc(Cl)cc1 [p-Chlorobenzonitrile]
Relative activity, Enzyme reaction [1]: 13% | relative activity (substrate specificity) [2]: 13% | Relative activity [3]: 16% | relative activity (substrate specificity) [4]: 0% | relative activity (substrate specificity) [5]: 0% | relative activity (substrate specificity) [6]: 0% | relative activity (substrate specificity) [7]: 0% | Total activity [8]: 2.30 µmol/mL/min

C=CC#N [Acrylonitrile]
Relative activity, Enzyme reaction [1, 27]: 94% | relative activity (substrate specificity) [2, 28]: 478% | Km [9]: 3.7 mM | Relative activity [3, 29]: 115% | relative activity (substrate specificity) [4, 30]: 101% | relative activity (substrate specificity) [5, 31]: 192% | relative activity (substrate specificity) [6, 32]: 147% | relative activity (substrate specificity) [7, 33]: 257%

N#CCCCCCCCC#N [Azelanitrile]
Specific activity ([10]; strain 45A32): 3.23 μmol/ml/min/OD | Total activity ([10]; strain 45A32): 18.8 µmol/mL/min | Growth (OD610 nm) ([10]; strain 45A32, nitrile as substrate in enrichment medium): 5.81 OD610 nm | Specific activity ([11]; strain NA40): 5.57 μmol/ml/min/OD | Total activity ([11]; strain NA40): 33.0 µmol/mL/min | Growth (OD610 nm) ([11]; strain NA40, nitrile as substrate in enrichment medium): 5.92 OD610 nm

N#Cc1cccnc1 [3-Cyanopyridine]
Relative activity, Enzyme reaction [1, 27]: 100% | nitrile hydratase activity decreased by the factor [12]: 1.4 | Activity for 3-cyanopyridine [13]: 371 μmol/min/mg protein | nitrile hydratase activity decreased by the factor [14]: 1.17 | nitrile hydratase activity decreased by the factor [15]: 1.25 | relative activity (substrate specificity) [2, 28]: 100% | Activity for 3-cyanopyridine [16]: 1110 μmol/min/mg protein | Km [9]: 41.7 mM | nitrile hydratase activity [17]: remained nearly constant | Relative activity [3, 29]: 100% | relative activity (substrate specificity) [4, 30]: 100% | relative activity (substrate specificity) [5, 31]: 100% | relative activity (substrate specificity) [6, 32]: 100% | relative activity (substrate specificity) [7, 33]: 100% | Activity for 3-cyanopyridine [18]: 314 | Activity for 3-cyanopyridine [19]: 303 µmol/mL/min | nitrile hydratase activity decreased by the factor [20]: 1.4

CO [methanol]
activity of resting NA40 cells ([21]; addition of 5 15% methanol): increased | Relative activity ([21]; methanol 5 % (v/v), 0 % = 100): 123% | Relative activity ([21]; methanol 10 % (v/v)): 128% | Relative activity ([21]; methanol 15 % (v/v)): 130% | Relative activity ([21]; methanol 20 % (v/v)): 105%

CCCCCCCC#N [n-octanenitrile]
Specific activity ([22]; strain 45O1): 4.45 μmol/ml/min/OD | Total activity ([22]; strain 45O1): 32.2 µmol/mL/min | Growth (OD610 nm) ([22]; strain 45O1, nitrile as substrate in enrichment medium): 7.24 OD610 nm

N#CCC(=O)O [Cyanoacetic acid]
Specific activity ([23]; strain C15): 3.43 μmol/ml/min/OD | Total activity ([23]; strain C15): 7.01 µmol/mL/min | Growth (OD610 nm) ([23]; strain C15, substrate in enrichment medium): 2.04 OD610 nm

N#CCCCCC#N [Adiponitrile]
Specific activity ([24]; strain NE31): 0.141 μmol/ml/min/OD | Total activity ([24]; strain NE31): 0.377 µmol/mL/min | Growth (OD610 nm) ([24]; strain NE31, nitrile as substrate in enrichment medium): 2.68 OD610 nm | Specific activity ([25]; strain E3733): 0.214 μmol/ml/min/OD | Total activity ([25]; strain E3733): 0.347 µmol/mL/min | Growth (OD610 nm) ([25]; strain E3733, nitrile as substrate in enrichment medium): 1.62 OD610 nm | Specific activity ([26]; strain E3736): 2.21 μmol/ml/min/OD | Total activity ([26]; strain E3736): 3.00 µmol/mL/min | Growth (OD610 nm) ([26]; strain E3736, nitrile as substrate in enrichment medium): 1.36 OD610 nm
